Results taken from patent publication US20260193242A1, “USEFUL COMPOUNDS FOR MODULATING INFLAMMATION” (FLAGSHIP PIONEERING INNOVATIONS VI, LLC, priority 2022, published 2026).

How the values were obtained:
[1] = tested on: R848-driven IRF reporter (Lucia luciferase, ISG54 promoter/IFN-stimulated response elements) in THP-1 cells; experiment: TLR7/8 (R848) stimulated interferon response element reporter gene assay in THP1-Dual cells; assay type: cell-based; settings: Homo sapiens, THP-1, 10 μM compound, 1 μM R848, THP1-Dual cells; read-out: R848-driven IRF reporter gene assay (Percent inhibition at 10 μM)
Method: Compounds described herein are added to the human leukemic monocyte-like cell line THP-1 for bioactivity assessment. THP1-Dual cells (InvivoGen, San Diego, CA) feature the Lucia gene, a secreted luciferase reporter gene, under the control of an ISG54 minimal promoter in conjunction with five IFN-stimulated response elements. THP1-Dual cells also express a secreted embryonic alkaline phosphatase (SEAP) reporter gene driven by an IFN-β minimal promoter fused to five copies of the NF-κB consensus transcriptional response element and three copies of the c-Rel binding site. As a result, THP1-Dual cells allow the simultaneous study of the NF-κB pathway, by monitoring the activity of SEAP, and the IRF pathway, by assessing the activity of Lucia luciferase.
THP-1 dual reporter cells were grown in RPMI 1640 culture medium with 2 mM L-glutamine, 25 mM HEPES, 10% heat-inactivated fetal bovine serum, 100 μg/ml Normocin antibiotic (InvivoGen), Pen-Strep antibiotic (100 U/ml-100 μg/ml, InvivoGen). On the day of the assay, cells were seeded in a 384 flat-bottom well plate at 25,000 cells/well and incubated for 2 hours. Cells were then incubated with 10 μM of the compounds described herein or with 1 μM of IKK-16 (Selleck), a potent inhibitor of IκB kinases (IKKs) or with DMSO (vehicle control) for 2 hours, followed by the addition of the synthetic TLR7/8 agonist R848 at 1 μM and incubation for 16 hours. After incubation was concluded, the cultures supernatants were collected and IRF related activity was assessed by measurement of the Lucia luciferase, using Quanti-Luc assay (InvivoGen). NF-κB pathway activity was assessed by quantifying SEAP using Quanti-Blue assay (InvivoGen).

LPS-stimulated MoDC = experiment: TLR4 stimulated pro-inflammatory cytokine release in primary human monocyte-derived dendritic cells; assay type: cell-based; settings: healthy human donors D14 and D15, dose response
Description: Monocyte derived DC (MoDC) were differentiated from healthy human donor derived CD14+ monocytes. Commercially available freshly prepared Leukopaks were obtained from healthy blood donor and kept refrigerated on ice before spin centrifuged and the pelleted cells are rinsed and resuspended with MACS buffer (Miltenyi Biotec). Next, CD14+ monocytes were purified using MultiMACS™ Cell24 Separator-Plus instrumentation and reagents according to the manufacturer (Miltenyi Biotec) instructions. The resulting purified CD14+ cell fraction was washed, enumerated, and subsequently cryopreserved for later use. At the experiment first day cryopreserved CD14+ cells were thawed, rinsed with culture media, and then resuspended in culture media principally composed of RPMI (Invitrogen) supplemented with 10% v/v heat inactivated FBS. For generation of MoDC, these CD14+ cells were enumerated and seeded into 75 cm^2 tissue culture flasks in 30 mL of culture media supplemented with GM-CSF (40-100 ng/ml) and IL-4 (25 ng/ml). Every other day, half of the culture media was replaced with fresh media (containing the same cytokine supplementation) and after 6-7 days of culture, fully differentiated and mature MoDC were obtained as confirmed by conventional Immuno-phenotype markers (levels of expression or absence of surface CD80, CD83, CD86, CD209, HLA-DR, CD14 & CD64) that were verified by flow-cytometry. Fully differentiated (mature) MoDCs, were seeded into 96 flat-well plates and incubated with various concentrations of the compounds described herein, or with control solution (DMSO), or with the pharmacologic inhibitors Cyclosporin-A (CsA) or BAY 61-3606 (which is a known inhibitor of Syk kinase) for 6 hours. Next, the cells were stimulated with Toll-like receptor agonists R848 (TLR7/8) or LPS (TLR4), and further incubated for 18-20 hours. After incubation concluded, culture supernatants were collected, and the levels of inflammatory cytokines and chemokines were measured in a triplicate setting for each condition by Luminex® multiplex assay.

[2] = tested on: TNBS-induced colitis, Balb/c mice; experiment: TNBS-induced model of colitis in mice, dosing from day -1, prophylactic mode; assay type: in vivo
Method: Female Balb/c mice aged 8 weeks and weighing 18-20 g were housed under standard conditions. The mice were divided into groups with 8-10 mice in each group by body weight. Mice in sham group received intracolonic injection with 50% ethanol (0.1 mL) at day 0, whereas mice in other Trinitrobenzene sulfonic acid (TNBS) colitis model groups received intracolonic injection of 2% TNBS solution in ethanol (0.1 mL) at day 0. The reference compound Mesalazine (Selleck) and test articles described here were dosed from day-1 to day 6. Day 6 was the endpoint, and samples were immediately harvested for the last endpoint. Mesalazine was dissolved in distilled water (pH 7.0) and test articles were dissolved in Phosal 50 PG for delivery by oral gavage.
As noted, dosing of the compounds described herein, as well as the positive control mesalamine, began one day before TNBS administration. Animals in this scenario have not yet developed colitis symptoms before administration of test articles. For this reason, we refer to these conditions as “prophylactic mode”.
Body weight and Disease Activity Index (DAI) scores were recorded daily to assess the colitis. DAI score was the sum of the weight loss score, stool score and bleeding sub-scores. A blinded scoring system was employed to assess the colitis. The DAI scorer blinded to the group information and animal ID was responsible for the stool consistency and bleeding evaluations. If there was no blood visible with naked eyes, the Fecal occult blood (FOB) test was performed with a fecal occult blood test strip (the improved pyramidon method).
Colon tissue morphology, damage and healing were assessed by histopathology. The colons were harvested, mesentery and adipose tissue were carefully removed, and internal contents were removed by rinsing with cold PBS. The colons were Swiss-rolled and fixed in neutralized paraformaldehyde followed by H&E staining. Clinical pathologists reviewed the H&E staining and scored blinded with animal ID. The pathological scoring standards were: crypt architecture (normal, 0-severe crypt distortion with loss of entire crypts, 3), degree of inflammatory cell infiltration (normal, 0-dense inflammatory infiltrate, 3), muscle thickening (base of crypt sits on the muscularis mucosae, 0-marked muscle thickening present, 3), goblet cell depletion (absent, 0-present, 1) and crypt abscess (absent, 0-present, 1).
The plasma was collected at Day-1 for PK and cytokine (IL-1ß and IL-6) analysis by mandibular venipuncture.
The data was compared by ANOVA with post-hoc Dunnett's multiple comparisons test using Graph Pad Prism 7.0 software (San Diego, CA, USA). P-value<0.05 was considered as statistically significant difference. For pairwise comparison of histology scores and cytokines, unpaired t-test was used to calculate statistical significance. Data was expressed as mean±standard error of mean. In figures, statistical significance is denoted by asterisks: *p<0.05 **p<0.01 ***p<0.005, ****p<0.0001.

[3] = 1, 3 and 10 mg/kg PO, QD, vs Vehicle group

CN1[C@@H](C(=O)O)CC[C@H]1[C@@H]1CSC(c2ccccc2O)=N1 [Compound I-4, (2R,5S)-5-((R)-2-(2-hydroxyphenyl)-4,5-dihydrothiazol-4-yl)-1-methylpyrrolidine-2-carboxylic acid]
inhibition at 10 µM [1]: ≥ 50% | IL-6 level (LPS-stimulated MoDC): statistically significant decrease | IL-12p70 level (LPS-stimulated MoDC): statistically significant decrease | IL-23 level (LPS-stimulated MoDC): statistically significant decrease | TNFα level (LPS-stimulated MoDC): statistically significant decrease | body weight (% initial weight) recovery ([2]; 30 mg/kg, PO, QD, day -1 to day 6): faster recovery rate | total histology scores ([2]; 1, 3 and 10 mg/kg PO, QD): lower | Disease Activity Index (DAI) scores ([2]; 1, 3 and 10 mg/kg PO, QD, day -1 to day 6): dose-dependent improvement | IL-1ß in plasma [2, 3]: decreased | IL-6 in plasma [2, 3]: decreased | pathological score (crypt structure failure, inflammatory cell infiltration) ([2]; 1, 3 and 10 mg/kg PO, QD, H&E colon): lower | ED50 ([2]; Mus musculus, 144 h, PO, QD, day -1 to day 6, read-out: dose for half maximal effect or ED50 (DAI score at Day 6)): 15 mg/kg | colon recovery and mucosal healing ([2]; in a dose-dependent manner, prophylactic mode): promoted the colon recovery and mucosal healing
